In ChEMBL document CHEMBL1142066, “In vitro effects of antimicrobial agents on planktonic and biofilm forms of Staphylococcus lugdunensis clinical isolates” (2007):
Converted amounts (≈) assume the structure as drawn. The source made the active and inactive calls. The calls are words filed in the database; no cut-off is given here.

Assays:
[1] = test system: Staphylococcus lugdunensis; test: Effect on biofilm formation of Staphylococcus lugdunensis assessed as percent non-biofilm forming isolates; assay type: functional; set-up: concentration or dose not given beside the values
[2] = test system: Staphylococcus lugdunensis; test: Antimicrobial susceptibility of Staphylococcus lugdunensis isolates by broth microdilution method; assay type: functional; details: for MIC50 / MIC90: Staphylococcus lugdunensis
[3] = test system: Staphylococcus lugdunensis; test: Antimicrobial susceptibility of Staphylococcus lugdunensis IDRL856 biofilms after 24 hrs assessed as bacterial regrowth; assay type: functional
[4] = test system: Staphylococcus lugdunensis; test: Antimicrobial susceptibility of Staphylococcus lugdunensis IDRL2394 biofilms after 24 hrs assessed as bacterial regrowth; assay type: functional
[5] = test system: Staphylococcus lugdunensis; test: Antimicrobial susceptibility of Staphylococcus lugdunensis IDRL2414 biofilms after 24 hrs assessed as bacterial regrowth; assay type: functional
[6] = test system: Staphylococcus lugdunensis; test: Antimicrobial susceptibility of Staphylococcus lugdunensis IDRL2492 biofilms after 24 hrs assessed as bacterial regrowth; assay type: functional
[7] = test system: Staphylococcus lugdunensis; test: Antimicrobial susceptibility of Staphylococcus lugdunensis IDRL2526 biofilms after 24 hrs assessed as bacterial regrowth; assay type: functional
[8] = test system: Staphylococcus lugdunensis; test: Antimicrobial susceptibility of Staphylococcus lugdunensis IDRL2554 biofilms after 24 hrs assessed as bacterial regrowth; assay type: functional
[9] = test system: Staphylococcus lugdunensis; test: Antimicrobial susceptibility of Staphylococcus lugdunensis IDRL2588 biofilms after 24 hrs assessed as bacterial regrowth; assay type: functional
[10] = test system: Staphylococcus lugdunensis; test: Antimicrobial susceptibility of Staphylococcus lugdunensis IDRL2622 biofilms after 24 hrs assessed as bacterial regrowth; assay type: functional
[11] = test system: Staphylococcus lugdunensis; test: Antimicrobial susceptibility of Staphylococcus lugdunensis IDRL2639 biofilms after 24 hrs assessed as bacterial regrowth; assay type: functional
[12] = test system: Staphylococcus lugdunensis; test: Antimicrobial susceptibility of Staphylococcus lugdunensis IDRL2640 biofilms after 24 hrs assessed as bacterial regrowth; assay type: functional
[13] = test system: Staphylococcus lugdunensis; test: Antimicrobial susceptibility of Staphylococcus lugdunensis IDRL2664 biofilms after 24 hrs assessed as bacterial regrowth; assay type: functional
[14] = test system: Staphylococcus lugdunensis; test: Antimicrobial susceptibility of Staphylococcus lugdunensis IDRL5204 biofilms after 24 hrs assessed as bacterial regrowth; assay type: functional
[15] = test system: Staphylococcus lugdunensis; test: Antimicrobial susceptibility of Staphylococcus lugdunensis IDRL5254 biofilms after 24 hrs assessed as bacterial regrowth; assay type: functional
[16] = test system: Staphylococcus lugdunensis; test: Antimicrobial susceptibility of Staphylococcus lugdunensis IDRL5256 biofilms after 24 hrs assessed as bacterial regrowth; assay type: functional
[17] = test system: Staphylococcus lugdunensis; test: Antimicrobial susceptibility of Staphylococcus lugdunensis IDRL5258 biofilms after 24 hrs assessed as bacterial regrowth; assay type: functional
[18] = test system: Staphylococcus lugdunensis; test: Increase in biofilm formation of Staphylococcus lugdunensis assessed as percent biofilm forming isolates; assay type: functional
[19] = test system: Staphylococcus lugdunensis; test: Decrease in biofilm formation of Staphylococcus lugdunensis assessed as percent biofilm forming isolates; assay type: functional; set-up: concentration or dose not given beside the values
Staphylococcus aureus [20] = test: Increase in biofilm formation of Staphylococcus aureus SA113 at 0.25 times MIC; assay type: functional, organism-based
[21] = test system: Staphylococcus epidermidis; test: Increase in biofilm formation of Staphylococcus epidermidis RP62A at 0.25 times MIC; assay type: functional, organism-based
Staphylococcus aureus [22] = test: Decrease in biofilm formation of Staphylococcus aureus SA113; assay type: functional, organism-based
[23] = test system: Staphylococcus epidermidis; test: Decrease in biofilm formation of Staphylococcus epidermidis RP62A; assay type: functional, organism-based
[24] = test system: Staphylococcus lugdunensis; test: Antimicrobial susceptibility of Staphylococcus lugdunensis IDRL5204 isolate from prosthetic joint infection patient by broth microdilution method; assay type: functional
[25] = test system: Staphylococcus lugdunensis; test: Stimulation of Staphylococcus lugdunensis IDRL5256 biofilm formation; assay type: functional, organism-based

Row | SMILES | Activity [1] [%] | MBC50 [2] [µg/mL] | MBC90 [2] [µg/mL] | MIC50 [2] [µg/mL] | MIC90 [2] [µg/mL] | BBC [3] [µg/mL] | BBC [4] [µg/mL] | BBC [5] [µg/mL] | BBC [6] [µg/mL] | BBC [7] [µg/mL] | BBC [9] [µg/mL] | BBC [10] [µg/mL] | BBC [11] [µg/mL] | BBC [12] [µg/mL] | BBC [14] [µg/mL] | BBC [15] [µg/mL] | BBC [16] [µg/mL] | BBC [17] | Activity [18] [%] | Activity [19] [%] | other results
1 | CCCCCCCCCC(=O)N[C@@H](Cc1c[nH]c2ccccc12)C(=O)N[C@H](CC(N)=O)C(=O)N[C@@H](CC(=O)O)C(=O)N[C@@H]1C(=O)NCC(=O)N[C@@H](CCCN)C(=O)N[C@@H](CC(=O)O)C(=O)N[C@H](C)C(=O)N[C@@H](CC(=O)O)C(=O)NCC(=O)N[C@H](CO)C(=O)N[C@@H]([C@H](C)CC(=O)O)C(=O)N[C@@H](CC(=O)c2ccccc2N)C(=O)O[C@@H]1C | 87 | 0.5 (≈ 0.309 µM) | 1 (≈ 0.617 µM) | 0.125 (≈ 0.0771 µM) | 0.25 (≈ 0.154 µM) | 16 | 64 | >128 | 8 | 8 | 128 | 1 | 32 | >128 | 8 | 128 | 64 | 16 µg/mL | 13 | 0 | BBC [8]: 4 µg/mL; BBC [13]: 32 µg/mL
2 | Cc1nnc(SCC2=C(C(=O)O)N3C(=O)[C@@H](NC(=O)Cn4cnnn4)[C@H]3SC2)s1 [CEFAZOLIN] | 80 | 0.5 (≈ 1.1 µM) | 1 (≈ 2.2 µM) | 0.25 (≈ 0.55 µM) | 0.5 (≈ 1.1 µM) | >128 | >128 | >128 | >128 | >128 | >128 | 2 | 4 | >128 | 1 | >128 | >128 | >128 µg/mL | 13 | 7 | BBC [8]: >128 µg/mL; BBC [13]: 8 µg/mL
3 | CC(=O)NC[C@H]1CN(c2ccc(N3CCOCC3)c(F)c2)C(=O)O1 [LINEZOLID] | 20 | >128 | >128 | 1 (≈ 2.96 µM) | 1 (≈ 2.96 µM) | >128 | >128 | >128 | >128 | >128 | >128 | >128 | >128 | >128 | 4 | >128 | >128 | >128 µg/mL | 0 | 80 | Activity (Staphylococcus aureus [20]): Active; Activity [21]: Active; BBC [8]: >128 µg/mL; BBC [13]: >128 µg/mL
4 | COc1c(N2C[C@@H]3CCCN[C@@H]3C2)c(F)cc2c(=O)c(C(=O)O)cn(C3CC3)c12 [MOXIFLOXACIN] | 33 | 0.125 (≈ 0.311 µM) | 0.25 (≈ 0.623 µM) | 0.125 (≈ 0.311 µM) | 0.25 (≈ 0.623 µM) | 0.25 | 2 | 0.5 | 0.25 | 0.5 | 0.5 | 2 | 0.25 | 2 | 0.5 | 0.5 | 1 | <=0.125 ug ml-1 | 27 | 40 | BBC [8]: <=0.125 ug ml-1; BBC [13]: <=0.125 ug ml-1
5 | CCOc1ccc2ccccc2c1C(=O)N[C@@H]1C(=O)N2[C@@H]1SC(C)(C)[C@@H]2C(=O)O [NAFCILLIN] | 7 | 0.5 (≈ 1.21 µM) | 2 (≈ 4.83 µM) | 0.5 (≈ 1.21 µM) | 0.5 (≈ 1.21 µM) | 16 | >128 | >128 | 8 | 4 | 8 | 8 | 1 | >128 | 0.5 | >128 | >128 | 0.5 µg/mL | 93 | 0 | Activity (Staphylococcus aureus [22]): Active; Activity [23]: Active; BBC [8]: 2 µg/mL; BBC [13]: 2 µg/mL
6 | CO[C@H]1/C=C/O[C@@]2(C)Oc3c(C)c(O)c4c(O)c(c(/C=N/N5CCN(C)CC5)c(O)c4c3C2=O)NC(=O)/C(C)=C\C=C\[C@H](C)[C@H](O)[C@@H](C)[C@@H](O)[C@@H](C)[C@H](OC(C)=O)[C@@H]1C [RIFAMPIN] | 93 | 8 (≈ 9.72 µM) | >32 | ≤ 0.03 | ≤ 0.03 | 8 | 0.25 | 0.25 | 64 | 32 | 64 | 64 | 32 | 64 | 32 | 64 | 32 | 8 µg/mL | 7 | 0 | –
7 | Cc1cc(NS(=O)(=O)c2ccc(N)cc2)no1 [SULFAMETHOXAZOLE] | – | – | – | – | – | – | – | – | – | – | – | – | – | – | – | – | – | – | – | – | MIC [24]: 304 µg/mL (≈ 1200 µM)
8 | CN(C)[C@@H]1C(O)=C(C(N)=O)C(=O)[C@@]2(O)C(O)=C3C(=O)c4c(O)cccc4[C@@](C)(O)[C@H]3C[C@@H]12 [TETRACYCLINE] | 0 | >32 | >32 | 0.25 (≈ 0.563 µM) | 1 (≈ 2.25 µM) | 128 | 128 | 128 | 128 | 128 | 128 | 128 | 16 | 128 | 1 | 128 | 128 | 64 µg/mL | 7 | 93 | Activity [25]: Active; BBC [8]: 128 µg/mL; BBC [13]: 128 µg/mL
9 | COc1cc(Cc2cnc(N)nc2N)cc(OC)c1OC [TRIMETHOPRIM] | – | – | – | – | – | – | – | – | – | – | – | – | – | – | – | – | – | – | – | – | MIC [24]: 16 µg/mL (≈ 55.1 µM)
